Assay results from patent publication US6653300B2, “Pyrazole compounds useful as protein kinase inhibitors” (Vertex Pharmaceuticals Incorporated, priority 2000, dated 2003).
pKi: −log10 of the molar value.

Legend:
Aurora-2 = target: T1, Aurora-2 (Homo sapiens, UniProt O14965); assay: Ki determination for the inhibition of Aurora-2 (coupled enzyme assay); type: biochemical; details: 70 nM Aurora-2, 30° C.
T1 sequence (O14965 1-403): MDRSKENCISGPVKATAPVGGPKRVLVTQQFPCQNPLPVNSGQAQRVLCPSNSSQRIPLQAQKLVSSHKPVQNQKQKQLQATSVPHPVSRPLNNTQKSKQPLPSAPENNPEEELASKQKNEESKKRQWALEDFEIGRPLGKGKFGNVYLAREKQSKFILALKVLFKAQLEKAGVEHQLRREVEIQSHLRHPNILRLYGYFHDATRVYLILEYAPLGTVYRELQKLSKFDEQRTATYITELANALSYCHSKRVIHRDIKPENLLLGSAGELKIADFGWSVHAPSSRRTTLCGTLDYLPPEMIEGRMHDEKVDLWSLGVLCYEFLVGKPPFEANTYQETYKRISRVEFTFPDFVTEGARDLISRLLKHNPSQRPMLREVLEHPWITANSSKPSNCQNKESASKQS
Procedure: Compounds were screened in the following manner for their ability to inhibit Aurora-2 using a standard coupled enzyme assay (Fox et al (1998) Protein Sci 7, 2249).
To an assay stock buffer solution containing 0.1M HEPES 7.5, 10 mM MgCl2, 1 mM DTT, 25 mM NaCl, 2.5 mM phosphoenolpyruvate, […], 30 mg/ml pyruvate kinase, 10 mg/ml lactate dehydrogenase, […], and 800 μM peptide (LRRASLG, American Peptide, Sunnyvale, Calif.) was added a DMSO solution of a compound of the present invention to a final concentration of 30 μM. The resulting mixture was incubated at 30° C. for 10 min. The reaction was initiated by the addition of 10 μL of Aurora-2 stock solution to give a final concentration of 70 nM in the assay. The rates of reaction were obtained by monitoring absorbance at 340 nm over a 5 minute read time at 30° C. using a BioRad Ultramark plate reader (Hercules, Calif.). The Ki values were determined from the rate data as a function of inhibitor concentration.

GSK-3β (AA 1-420) = target: T2, GSK-3β (AA 1-420) (Homo sapiens, UniProt P49841); assay: Ki determination for the inhibition of GSK-3 (coupled enzyme system); type: biochemical; details: 20 μM ATP, 20 nM GSK-3β, 30° C.
T2 construct: GSK-3β (AA 1-420)
T2 sequence (P49841 whole entry, the tested form may be a part): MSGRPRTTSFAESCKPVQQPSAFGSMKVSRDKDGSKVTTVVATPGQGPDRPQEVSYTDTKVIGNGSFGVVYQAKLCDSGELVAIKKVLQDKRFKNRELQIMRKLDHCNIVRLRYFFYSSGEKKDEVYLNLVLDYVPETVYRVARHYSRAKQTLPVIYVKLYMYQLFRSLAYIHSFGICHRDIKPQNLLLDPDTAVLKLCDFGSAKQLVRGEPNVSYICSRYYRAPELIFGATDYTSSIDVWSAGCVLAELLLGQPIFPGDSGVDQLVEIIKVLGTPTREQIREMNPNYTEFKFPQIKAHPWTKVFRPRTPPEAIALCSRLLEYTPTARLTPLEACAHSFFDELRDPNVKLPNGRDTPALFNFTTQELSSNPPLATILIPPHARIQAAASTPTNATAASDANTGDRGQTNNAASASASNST
Procedure: Compounds were screened for their ability to inhibit GSK-3β (AA 1-420) activity using a standard coupled enzyme system (Fox et al. (1998) Protein Sci. 7, 2249). Reactions were carried out in a solution containing 100 mM HEPES (pH 7.5), 10 mM MgCl2, 25 mM NaCl, 300 μM NADH, 1 mM DTT and 1.5% DMSO. Final substrate concentrations in the assay were 20 μM ATP (Sigma Chemicals, St Louis, Mo.) and 300 μM peptide (HSSPHQS (PO3H2) EDEEE, American Peptide, Sunnyvale, Calif.). Reactions were carried out at 30° C. and 20 nM GSK-3β. Final concentrations of the components of the coupled enzyme system were 2.5 mM phosphoenolpyruvate, 300 μM NADH, 30 μg/ml pyruvate kinase and 10 μg/ml lactate dehydrogenase.
An assay stock buffer solution was prepared containing all of the reagents listed above with the exception of ATP and the test compound of interest. The assay stock buffer solution (175 μl) was incubated in a 96 well plate with 5 μl of the test compound of interest at final concentrations spanning 0.002 μM to 30 μM at 30° C. for 10 min. […] The reaction was initiated by the addition of 20 μl of ATP (final concentration 20 μM). Rates of reaction were obtained using a Molecular Devices Spectramax plate reader (Sunnyvale, Calif.) over 10 min at 30° C. The Ki values were determined from the rate data as a function of inhibitor concentration.

| Compound | pKi (Aurora-2) | pKi (GSK-3β (AA 1-420)) | melting point |
| --- | --- | --- | --- |
| CSc1nc(Nc2cc(C)[nH]n2)cc(N2CCN(C)CC2)n1 [IIIa-14, [6-(4-Methylpiperazin-1-yl)-2-methylsulfanyl-pyrimidin-4-yl]-(5-methyl-2H-pyrazol-3-yl)-amine] | 6.00 to 7.00 | – | – |
| CCC(=O)Nc1ccc(Sc2nc(Nc3cc(C4CC4)[nH]n3)cc(-c3ccccc3)n2)cc1 [IIIa-33, (5-Cyclopropyl-2H-pyrazol-3-yl)-[6-phenyl-2-(4-propionylamino-phenyl-sulfanyl)-pyrimidin-4-yl]-amine] | – | 6.00 to 7.00 | 208 to 209 °C |
| Cc1cc(Nc2cc(N3CCOCC3)nc(SCc3ccc4ccccc4c3)n2)n[nH]1 [IIIa-42, (5-Methyl-2H-pyrazol-3-yl)-[6-morpholin-4-yl-2-(naphthalene-2-ylmethylsulfanyl)-pyrimidin-4-yl]-amine] | 5.00 to 6.00 | 6.00 to 7.00 | – |
| c1ccc(-c2cc(Nc3cc(C4CC4)[nH]n3)nc(Oc3ccc4ccccc4c3)n2)cc1 [IIIb-1] | 6.00 to 7.00 | – | – |
| COC(=O)c1cccc(Oc2nc(Nc3cc(C4CC4)[nH]n3)cc(-c3ccccc3)n2)c1 [IIIb-2] | 6.00 to 7.00 | – | – |
| c1ccc2cc(Oc3nc(Nc4cc(C5CC5)[nH]n4)cc(N4CCOCC4)n3)ccc2c1 [IIIb-7] | 6.00 to 7.00 | 6.00 to 7.00 | – |
| CN1CCN(c2cc(Nc3cc(C4CC4)[nH]n3)nc(Oc3ccc4ccccc4c3)n2)CC1 [IIIb-8] | 5.00 to 6.00 | – | – |
| Cc1cc(Nc2cc(-c3c(C)cccc3C)nc(Oc3ccc4ccccc4c3)n2)n[nH]1 [IIIb-9] | 5.00 to 6.00 | – | – |
| COc1nc(Nc2cc(C)[nH]n2)cc(N2CCN(C)CC2)n1 [IIIb-14] | 5.00 to 6.00 | > 7.00 | – |
| CCC(=O)Nc1ccc(Oc2nc(Nc3cc(C)[nH]n3)cc(-c3ccccc3)n2)cc1 [IIIb-15] | 6.00 to 7.00 | 6.00 to 7.00 | – |
| Cc1cc(Nc2cc(-c3ccccc3)nc(Oc3ccc(NC(=O)C4CC4)cc3)n2)n[nH]1 [IIIb-16] | 6.00 to 7.00 | 6.00 to 7.00 | – |
| Cc1cc(Nc2cc(-c3ccco3)[nH]n2)nc(Nc2ccc(Cl)cc2)n1 [IIIc-9, [2-(4-Chlorophenyl)amino-6-methyl-pyrimidin-4-yl]-[5-(furan-2-yl)-2H-pyrazol-3-yl]-amine] | 6.00 to 7.00 | > 7.00 | – |
| CCc1cc(Nc2cc(C)[nH]n2)nc(Nc2nc3ccccc3[nH]2)n1 [IIIc-10, [2-(Benzimidazol-2-ylamino-)6-ethyl-pyrimidin-4-yl]-(5-methyl-2H-pyrazol-3-yl)-amine] | 5.00 to 6.00 | 5.15 to 6.00 | – |
| Cc1cc(Nc2cc(-c3ccccc3)[nH]n2)nc(Nc2ccc(Cl)cc2)n1 [IIIc-11, [2-(4-Chlorophenyl)amino-6-methyl-pyrimidin-4-yl]-(5-phenyl-2H-pyrazol-3-yl)-amine] | 6.00 to 7.00 | > 7.00 | – |
| CCc1cc(Nc2cc(C)[nH]n2)nc(Nc2ccc(Cl)cc2)n1 [IIIc-12, [2-(4-Chlorophenyl)amino-6-ethyl-pyrimidin-4-yl]-(5-methyl-2H-pyrazol-3-yl)-amine] | > 7.00 | > 7.00 | – |
| c1ccc(Nc2nc(Nc3cc(-c4ccco4)[nH]n3)cc(-c3ccccc3)n2)cc1 [IIIc-15, [5-(Furan-2-yl)-2H-pyrazol-3-yl]-(6-phenyl-2-phenylamino-pyrimidin-4-yl)-amine] | > 7.00 | > 7.00 | – |
| CCc1cc(Nc2cc(C)[nH]n2)nc(C(C)(C)c2ccccc2)n1 [IIId-20] | 6.00 to 7.00 | > 7.00 | – |

| Compound | pKi (Aurora-2) | pKi (GSK-3β (AA 1-420)) | melting point |
| --- | --- | --- | --- |
| COc1ccc(Sc2nc(Nc3cc(C4CC4)[nH]n3)c3ccccc3n2)cc1OC [IIa-25, (5-Cyclopropyl-2H-pyrazol-3-yl)-[2-(3,4-dimethoxyphenylsulfanyl)-quinazolin-4-yl]-amine] | > 7.00 | 5.15 to 6.00 | – |
| CC(=O)Nc1ccc(Sc2nc(Nc3cc(C)[nH]n3)c3ccc([N+](=O)[O-])cc3n2)cc1 [IIa-53, [2-(4-Acetamido-phenylsulfanyl)-7-nitroquinazolin-4-yl]-(5-methyl-2H-pyrazol-3-yl)-amine] | > 7.00 | – | – |
| CC(=O)Nc1ccc(Sc2nc(Nc3cc(C)[nH]n3)c3ccc(NO)cc3n2)cc1 [IIa-56, [2-(4-Acetamido-phenylsulfanyl)-7-hydroxyaminoquinazolin-4-yl]-(5-methyl-2H-pyrazol-3-yl)-amine] | > 7.00 | – | – |
| Cc1cc(Nc2nc(Sc3ccc(NC(=O)CC(C)C)cc3)nc3ccccc23)n[nH]1 [IIa-57, [2-(4-Isobutanecarbonylamino-phenylsulfanyl)-quinazolin-4-yl]-(5-methyl-2H-pyrazol-3-yl)-amine] | > 7.00 | – | 281 to 282 °C |
| CC(=O)Nc1ccc(Sc2nc(Nc3cc(C)[nH]n3)c3ccc(N)cc3n2)cc1 [IIa-59, [2-(4-Acetamido-phenylsulfanyl)-7-aminoquinazolin-4-yl]-(5-methyl-2H-pyrazol-3-yl)-amine] | > 7.00 | – | 264 to 265 °C |
| Cc1cc(Nc2nc(Sc3ccc(NC(=O)CN4CCOCC4)cc3)nc3ccccc23)n[nH]1 [IIa-60, (5-Methyl-2H-pyrazol-3-yl)-{2-[4-(2-morpholin-4-yl-acetylamino)-phenylsulfanyl]-quinazolin-4-yl}-amine] | > 7.00 | – | 266 to 267 °C |
| CC(=O)Nc1ccc(Sc2nc(Nc3cc(C)[nH]n3)c3cccc(OCCCN(C)C)c3n2)cc1 [IIa-73, [2-(4-Acetamidophenylsulfanyl)-8-(3-dimethylamino-propoxy)-quinazolin-4-yl]-(5-methyl-2H-pyrazol-3-yl)-amine] | > 7.00 | – | 170 to 172 °C |
| Cc1cc(Nc2nc(Nc3cccc(Cl)c3)nc3ccccc23)n[nH]1 [IIc-11, [2-(3-Chlorophenylamino)-quinazolin-4-yl]-(5-methyl-2H-pyrazol-3-yl)-amine] | > 7.00 | > 7.00 | – |
| c1ccc(CCNc2nc(Nc3cc(C4CC4)[nH]n3)c3ccccc3n2)cc1 [IIc-28, (5-Cyclopropyl-2H-pyrazol-3-yl)-(2-phenetylamino-quinazolin-4-yl)-amine] | > 7.00 | 6.00 to 7.00 | – |
| COc1cccc(Nc2nc(Nc3cc(C)[nH]n3)c3ccccc3n2)c1 [IIc-56, [2-(3-Methoxyphenylamino)-quinazolin-4-yl]-(5-methyl-2H-pyrazol-3-yl)-amine] | > 7.00 | 6.00 to 7.00 | – |
| COc1ccc(Nc2nc(Nc3cc(C)[nH]n3)c3ccccc3n2)cc1-c1ccccc1 [IIc-58, [2-(2-Methoxybiphenyl-5-ylamino)-quinazolin-4-yl]-(5-methyl-2H-pyrazol-3-yl)-amine] | > 7.00 | 5.15 to 6.00 | – |
| Cc1cc(Nc2nc(Nc3ccc4oc(=O)c5ccccc5c4c3)nc3ccccc23)n[nH]1 [IIc-62] | – | 5.15 to 6.00 | 293 to 298 °C |
| FC(F)(F)c1cccc(Nc2nc(Nc3n[nH]c4ccccc34)c3ccccc3n2)c1 [IIc-71, (1H-Indazol-3-yl)-[2-(3-trifluoromethylphenylamino)-quinazolin-4-yl]-amine] | 5.00 to 6.00 | 5.15 to 6.00 | – |
| Clc1ccccc1Nc1nc(Nc2n[nH]c3ccccc23)c2ccccc2n1 [IIc-75, [2-(2-Chloro-phenyl)-amino-quinazolin-4-yl]-(1H-indazol-3-yl)-amine] | 5.00 to 6.00 | 6.00 to 7.00 | – |
| FC(F)(F)c1ccccc1Nc1nc(Nc2n[nH]c3ccccc23)c2ccccc2n1 [IIc-76, (1H-Indazol-3-yl)-[2-(2-trifluoromethylphenylamino)-quinazolin-4-yl]-amine] | 5.00 to 6.00 | 6.00 to 7.00 | – |
| Cc1cc(Nc2nc(COc3ccc(Cl)cc3)nc3c2CCCC3)n[nH]1 [IId-6, [2-(4-Chlorophenoxymethyl)-5,6,7,8-tetrahydro-quinazolin-4-yl]-(5-methyl-2H-pyrazol-3-yl)-amine] | 6.00 to 7.00 | 6.00 to 7.00 | – |
